From ChEMBL document CHEMBL1201862, “PubChem BioAssay data set” (2004)
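Step 1: Grow cells in 96-well plates. Step 2: Expose to compound for 48 hours at 5 concentrations. Step 3: Interpolate endpoints linearly; if unreached, use highest concentration. GI50 = concentration required for 50% inhibition of growth.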 Active and inactive are the calls of the source. Rule as the data show it: active = GI50 up to about 1.1 µM and inactive = higher.

What was measured:
Assay in all cases: NCI-60 cell line screen, 48 h
SF-295 = tested on: SF-295
DMS-273 = tested on: DMS-273
NCI-H460 = tested on: NCI-H460
SW-620 = tested on: SW-620
Malme-3M = tested on: Malme-3M
SNB-78 = tested on: SNB-78
SNB-19 = tested on: SNB-19
CAKI-1 = tested on: CAKI-1
SF-539 = tested on: SF-539
UACC-62 = tested on: UACC-62
OVCAR-3 = tested on: OVCAR-3
HCC 2998 = tested on: HCC 2998
RPMI-8226 = tested on: RPMI-8226
MOLT-4 = tested on: MOLT-4
NCI-H522 = tested on: NCI-H522
OVCAR-8 = tested on: OVCAR-8
IGROV-1 = tested on: IGROV-1
UACC-257 = tested on: UACC-257
HCT-15 = tested on: HCT-15
HT-29 = tested on: HT-29
LOX IMVI = tested on: LOX IMVI
M14 = tested on: M14
NCI-H226 = tested on: NCI-H226
A549 = tested on: A549
EKVX = tested on: EKVX
COLO 205 = tested on: COLO 205
HL-60 = tested on: HL-60
XF498 = tested on: XF498
KM-20L2 = tested on: KM-20L2
SF-268 = tested on: SF-268
HCT-116 = tested on: HCT-116
U-251 = tested on: U-251
OVCAR-4 = tested on: OVCAR-4
DMS-114 = tested on: DMS-114
CCRF-CEM = tested on: CCRF-CEM
SR = tested on: SR
OVCAR-5 = tested on: OVCAR-5
SK-MEL-2 = tested on: SK-MEL-2
M19-MEL = tested on: M19-MEL
SK-OV-3 = tested on: SK-OV-3
NCI-H23 = tested on: NCI-H23
SK-MEL-5 = tested on: SK-MEL-5
SN12C = tested on: SN12C
KM12 = tested on: KM12
A498 = tested on: A498
SK-MEL-28 = tested on: SK-MEL-28
UO-31 = tested on: UO-31
786-0 = tested on: 786-0
ACHN = tested on: ACHN
HOP-62 = tested on: HOP-62
HOP-92 = tested on: HOP-92
K562 = tested on: K562
DLD-1 = tested on: DLD-1
TK-10 = tested on: TK-10
RXF 393 = tested on: RXF 393
LXFL 529 = tested on: LXFL 529
HOP-18 = tested on: HOP-18
SNB-75 = tested on: SNB-75

**Q.** For CCOC(=O)/C(=C\c1ccccc1)C(=O)O, which GI50 (SF-295) is on record?
**A.** > 100 µM (inactive)

**Q.** What about the GI50 (DMS-273) of the same compound?
**A.** > 100 µM (inactive)

**Q.** And the GI50 (NCI-H460)?
**A.** > 100 µM (inactive)

**Q.** And the GI50 (SW-620)?
**A.** > 100 µM (inactive)

**Q.** And the GI50 (Malme-3M)?
**A.** > 100 µM (inactive)

**Q.** What about the GI50 (SNB-78) of the same compound?
**A.** > 100 µM (inactive)

**Q.** And the GI50 (SNB-19)?
**A.** > 100 µM (inactive)

**Q.** And the GI50 (CAKI-1)?
**A.** > 100 µM (inactive)

**Q.** And the GI50 (SF-539)?
**A.** > 100 µM (inactive)

**Q.** What about the GI50 (UACC-62) of the same compound?
**A.** > 100 µM (inactive)

**Q.** And the GI50 (OVCAR-3)?
**A.** > 100 µM (inactive)

**Q.** What about the GI50 (HCC 2998) of the same compound?
**A.** > 100 µM (inactive)

**Q.** What about the GI50 (RPMI-8226) of the same compound?
**A.** > 100 µM (inactive)

**Q.** And the GI50 (MOLT-4)?
**A.** > 100 µM (inactive)

**Q.** What about the GI50 (NCI-H522) of the same compound?
**A.** > 100 µM (inactive)

**Q.** And the GI50 (OVCAR-8)?
**A.** > 100 µM (inactive)

**Q.** And the GI50 (IGROV-1)?
**A.** > 100 µM (inactive)

**Q.** What about the GI50 (UACC-257) of the same compound?
**A.** > 100 µM (inactive)

**Q.** And the GI50 (HCT-15)?
**A.** > 100 µM

**Q.** And the GI50 (HT-29)?
**A.** > 100 µM (inactive)

**Q.** And the GI50 (LOX IMVI)?
**A.** > 100 µM (inactive)

**Q.** And the GI50 (M14)?
**A.** > 100 µM (inactive)

**Q.** What about the GI50 (NCI-H226) of the same compound?
**A.** > 100 µM (inactive)

**Q.** What about the GI50 (A549) of the same compound?
**A.** > 100 µM (inactive)

**Q.** And the GI50 (EKVX)?
**A.** > 100 µM (inactive)

**Q.** What about the GI50 (COLO 205) of the same compound?
**A.** > 100 µM (inactive)

**Q.** And the GI50 (HL-60)?
**A.** > 100 µM (inactive)

**Q.** What about the GI50 (XF498) of the same compound?
**A.** > 100 µM (inactive)

**Q.** What about the GI50 (KM-20L2) of the same compound?
**A.** > 100 µM (inactive)

**Q.** And the GI50 (SF-268)?
**A.** > 100 µM (inactive)

**Q.** What about the GI50 (HCT-116) of the same compound?
**A.** > 100 µM (inactive)

**Q.** And the GI50 (U-251)?
**A.** > 100 µM (inactive)

**Q.** What about the GI50 (OVCAR-4) of the same compound?
**A.** > 100 µM (inactive)

**Q.** And the GI50 (DMS-114)?
**A.** > 100 µM (inactive)

**Q.** And the GI50 (CCRF-CEM)?
**A.** > 100 µM (inactive)

**Q.** And the GI50 (SR)?
**A.** > 100 µM (inactive)

**Q.** And the GI50 (OVCAR-5)?
**A.** > 100 µM (inactive)

**Q.** And the GI50 (SK-MEL-2)?
**A.** > 100 µM (inactive)

**Q.** What about the GI50 (M19-MEL) of the same compound?
**A.** > 100 µM (inactive)

**Q.** What about the GI50 (SK-OV-3) of the same compound?
**A.** > 100 µM (inactive)

**Q.** What about the GI50 (NCI-H23) of the same compound?
**A.** > 100 µM (inactive)

**Q.** What about the GI50 (SK-MEL-5) of the same compound?
**A.** > 100 µM (inactive)

**Q.** And the GI50 (SN12C)?
**A.** > 100 µM (inactive)

**Q.** And the GI50 (KM12)?
**A.** > 100 µM (inactive)

**Q.** And the GI50 (A498)?
**A.** > 100 µM (inactive)

**Q.** And the GI50 (SK-MEL-28)?
**A.** > 100 µM (inactive)

**Q.** What about the GI50 (UO-31) of the same compound?
**A.** > 100 µM (inactive)

**Q.** What about the GI50 (786-0) of the same compound?
**A.** > 100 µM (inactive)

**Q.** And the GI50 (ACHN)?
**A.** > 100 µM (inactive)

**Q.** What about the GI50 (HOP-62) of the same compound?
**A.** > 100 µM (inactive)

**Q.** And the GI50 (HOP-92)?
**A.** > 100 µM (inactive)

**Q.** And the GI50 (K562)?
**A.** > 100 µM (inactive)

**Q.** Cc1ccccc1N(CC(=O)O)S(=O)(=O)c1ccccc1 was tested. Which GI50 (SF-295) did it give?
**A.** > 100 µM (inactive)

**Q.** What about the GI50 (DMS-273) of the same compound?
**A.** > 100 µM (inactive)

**Q.** And the GI50 (NCI-H460)?
**A.** > 100 µM (inactive)

**Q.** What about the GI50 (DLD-1) of the same compound?
**A.** > 100 µM (inactive)

**Q.** What about the GI50 (SW-620) of the same compound?
**A.** > 100 µM (inactive)

**Q.** And the GI50 (Malme-3M)?
**A.** > 100 µM (inactive)

**Q.** What about the GI50 (SNB-19) of the same compound?
**A.** > 100 µM (inactive)

**Q.** And the GI50 (CAKI-1)?
**A.** > 100 µM (inactive)

**Q.** What about the GI50 (SF-539) of the same compound?
**A.** > 100 µM (inactive)

**Q.** What about the GI50 (UACC-62) of the same compound?
**A.** > 100 µM (inactive)

**Q.** And the GI50 (TK-10)?
**A.** > 100 µM (inactive)

**Q.** And the GI50 (OVCAR-3)?
**A.** > 100 µM (inactive)

**Q.** And the GI50 (HCC 2998)?
**A.** > 100 µM (inactive)

**Q.** What about the GI50 (RPMI-8226) of the same compound?
**A.** > 100 µM (inactive)

**Q.** And the GI50 (MOLT-4)?
**A.** > 100 µM (inactive)

**Q.** What about the GI50 (NCI-H522) of the same compound?
**A.** > 100 µM (inactive)

**Q.** What about the GI50 (RXF 393) of the same compound?
**A.** > 100 µM (inactive)

**Q.** And the GI50 (OVCAR-8)?
**A.** > 100 µM (inactive)

**Q.** And the GI50 (IGROV-1)?
**A.** > 100 µM (inactive)

**Q.** What about the GI50 (LXFL 529) of the same compound?
**A.** > 100 µM (inactive)

**Q.** And the GI50 (UACC-257)?
**A.** > 100 µM (inactive)

**Q.** What about the GI50 (HCT-15) of the same compound?
**A.** > 100 µM

**Q.** And the GI50 (HT-29)?
**A.** > 100 µM (inactive)

**Q.** And the GI50 (HOP-18)?
**A.** > 100 µM (inactive)

**Q.** And the GI50 (LOX IMVI)?
**A.** > 100 µM (inactive)

**Q.** What about the GI50 (SNB-75) of the same compound?
**A.** > 100 µM (inactive)

**Q.** And the GI50 (M14)?
**A.** > 100 µM (inactive)

**Q.** What about the GI50 (NCI-H226) of the same compound?
**A.** > 100 µM (inactive)

**Q.** What about the GI50 (A549) of the same compound?
**A.** > 100 µM (inactive)

**Q.** What about the GI50 (EKVX) of the same compound?
**A.** > 100 µM (inactive)

**Q.** What about the GI50 (COLO 205) of the same compound?
**A.** > 100 µM (inactive)

**Q.** And the GI50 (HL-60)?
**A.** > 100 µM (inactive)

**Q.** And the GI50 (XF498)?
**A.** > 100 µM (inactive)

**Q.** What about the GI50 (KM-20L2) of the same compound?
**A.** > 100 µM (inactive)

**Q.** What about the GI50 (SF-268) of the same compound?
**A.** > 100 µM (inactive)

**Q.** What about the GI50 (U-251) of the same compound?
**A.** > 100 µM (inactive)

**Q.** What about the GI50 (OVCAR-4) of the same compound?
**A.** > 100 µM (inactive)

**Q.** What about the GI50 (CCRF-CEM) of the same compound?
**A.** > 100 µM (inactive)

**Q.** And the GI50 (OVCAR-5)?
**A.** > 100 µM (inactive)

**Q.** What about the GI50 (SK-MEL-2) of the same compound?
**A.** > 100 µM (inactive)

**Q.** And the GI50 (M19-MEL)?
**A.** > 100 µM (inactive)

**Q.** What about the GI50 (SK-OV-3) of the same compound?
**A.** > 100 µM (inactive)

**Q.** And the GI50 (NCI-H23)?
**A.** > 100 µM (inactive)

**Q.** What about the GI50 (SK-MEL-5) of the same compound?
**A.** > 100 µM (inactive)

**Q.** What about the GI50 (SN12C) of the same compound?
**A.** > 100 µM (inactive)

**Q.** And the GI50 (KM12)?
**A.** > 100 µM (inactive)

**Q.** What about the GI50 (A498) of the same compound?
**A.** > 100 µM (inactive)

**Q.** And the GI50 (SK-MEL-28)?
**A.** > 100 µM (inactive)

**Q.** And the GI50 (UO-31)?
**A.** > 100 µM (inactive)

**Q.** And the GI50 (786-0)?
**A.** > 100 µM (inactive)

**Q.** What about the GI50 (ACHN) of the same compound?
**A.** > 100 µM (inactive)

**Q.** What about the GI50 (HOP-92) of the same compound?
**A.** > 100 µM (inactive)

**Q.** What about the GI50 (K562) of the same compound?
**A.** > 100 µM (inactive)
